Experimental data: patent US9554987B2, “Methods and formulations for treating sialic acid deficiencies” (ULTRAGENYX PHARMACEUTICAL INC., priority 2010, dated 2017)

Columns and labels:
[1] = test system: male beagle dogs; test: Clinical signs and body weight in the single dose dog study (Example 5); type: in vivo, beagle dog (Canis familiaris); conditions: study period
Excerpt: Before dosing initiation, all animals were weighed and assigned to treatment groups. At the start of treatment, animals were 7-16 months of age and ranged in weight as 6.4 to 9.4 kg. Animals were housed individually in stainless steel cages equipped with a mesh-type floor and an automatic watering valve. A standard certified pelleted commercial dog food (approximately 400 g of Certified Canine Diet 5C07, PMI Nutrition International, Inc.) was provided to each animal once daily, except during designated procedures. Maximum allowable concentrations of contaminants in the diet (e.g., heavy metals, aflatoxin, organophosphates, chlorinated hydrocarbons, PCBs) were controlled and routinely analyzed by the manufacturers. It was considered that there were no known contaminants in the food that could have interfered with the objectives of the study. Municipal tap water, which was softened, purified by reverse osmosis and exposed to ultraviolet light, was freely available except during designated procedures. It was considered that there were no known contaminants in the water that could have interfered with the objectives of the study. Each Animal was provided with a floor toy, except during designated activities.
Individual body weights were measured once during the predose period and prior to each dose on dosing days.

[2] = test system: canine; test: Canine chronic toxicology study; type: in vivo, dog; conditions: very highest 2,000 mg/kg dose level

CC(=O)N[C@H]1[C@H]([C@H](O)[C@H](O)CO)OC(O)(C(=O)O)C[C@@H]1O (stereo partly drawn) [sialic acid, 5-N-acetylneuraminic acid]
treatment-related clinical signs ([1]; oral or intravenous administration): no treatment-related clinical signs
body weight or body weight gains [1]: no treatment related changes in body weight or body weight gains
finding in canine chronic toxicology study [2]: loosening of stools
